In patent US20240252488A1 (KOREA RESEARCH INSTITUTE OF CHEMICAL TECHNOLOGY, priority 2020, published 2024):

Legend:
MLKL [1] = target: T1, MLKL (Homo sapiens, UniProt Q8NB16); assay: MLKL degradation assay in HepG2 cell line (western blot); format: cell-based; set-up: endogenous in cells; host or cells: HepG2 or HaCaT; settings: cell line not given; for Degradation assay (Degradation %) 1 μM: compound 1 μM; for Degradation assay (Degradation %) 10 μM: compound 10 μM
T1 sequence (Q8NB16 1-471): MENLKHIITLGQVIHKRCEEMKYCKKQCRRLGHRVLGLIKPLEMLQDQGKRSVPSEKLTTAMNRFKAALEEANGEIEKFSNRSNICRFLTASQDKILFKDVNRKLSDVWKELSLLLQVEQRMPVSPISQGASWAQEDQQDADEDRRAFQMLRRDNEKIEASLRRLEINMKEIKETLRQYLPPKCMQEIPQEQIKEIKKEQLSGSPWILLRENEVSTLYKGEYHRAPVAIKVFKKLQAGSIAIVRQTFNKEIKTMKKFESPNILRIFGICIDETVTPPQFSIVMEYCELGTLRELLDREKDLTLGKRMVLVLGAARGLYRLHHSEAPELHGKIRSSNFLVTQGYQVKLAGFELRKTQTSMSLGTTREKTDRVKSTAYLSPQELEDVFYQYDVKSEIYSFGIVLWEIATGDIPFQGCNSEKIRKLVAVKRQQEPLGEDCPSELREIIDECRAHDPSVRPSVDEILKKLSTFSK
Protocol: MLKL degradation ability was evaluated in the following method.
1 mL of Human liver cancer cell line (HepG2 cell line) or human skin cell line (HaCaT cell line) was equally distributed into each well at 2.0×10^5 cells/mL in a 12-well cell culture plate. On the next day, the medium was replaced with a medium made so that the final concentration of test compound was 1 or 10 μM (1 mL/well), and incubated in 5% CO2, at 37° C. for 20-24 hours (Thermo scientific, Forma steri-cycle).
For protein preparation after incubation, cells were washed with 1×TBST, and 60 μL of RIPA lysis buffer containing Halt™ Protease and Phosphatase Inhibitor Cocktail was dispensed into each well. After scraping the cells with a scraper, the cells were recovered, and the pallet was homogenized and reacted on ice for 30 minutes. After the cells were centrifuged at 13,000 rpm, 10 minutes, 4° C., the supernatant was transferred to a new E-tube. For protein quantification, after dispensing sample and BCA (0-4 mg/ml) in a 96 well plate, 100 μL of BCA was dispensed and reacted in a 37° C. incubator for 30 minutes. After measuring the absorbance (SpectraMax, M5e, 562 nm), the amount of the sample was adjusted with the same concentration of protein and 4× Laemmli sample buffer, DW, and reacted at 100° C. for 5 minutes.
After assembling the MP TGX Precast Gel in the Mini-PROTEAN Tetra Cell, the same protein (10-15 μg) was added in an 8-10 μL volume per well, 1×Tris-Glycine Buffer was added, and loading was performed. After loading was completed, transfer was performed using Pierce G2 Fast Blotter and Pierce 1-Step Transfer Buffer. After completion of the transfer, 10 ml of SuperBlock™ Blocking Buffer was dispensed and reacted at room temperature for 10 minutes. 5% BSA containing the primary antibody was dispensed and reacted over night at 4° C. The next day, washing was performed three times with 1×TBST at room temperature for 10 minutes. 5% BSA containing the secondary antibody was dispensed and reacted at room temperature for 1 hour. Washing was performed three times with 1×TBST at room temperature for 10 minutes. The amount of protein expression was measured using chemiluminescence (LuminoGraph, ATTO).

MLKL [2] = target: T1, MLKL; assay: Measurement of binding affinity with MLKL receptor (competitive binding assay, Kd); set-up: made in house; host or cells: HEK 293 cell line (T7 phage in E. coli BL21-derived host is also described)
In short: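 Competitive displacement of MLKL, expressed in HEK 293 cells and DNA-tagged for qPCR, from immobilized ligand on biotin-blocked beads. Compounds were added from 111× DMSO stocks (final DMSO 0.9%). Kinase left in the eluates was quantified by qPCR to give Kd.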

FADD−/− Jurkat cells = assay: Necroptosis inhibition assay, TNF-α-induced necroptosis (CellTiter-Glo 2.0); format: cell-based, human; settings: TNF-α 15 ng/mL; for Necroptosis inhibition assay (Rescue %) 1 μM: compound 1 μM; for Necroptosis inhibition assay (Rescue %) 10 μM: compound 10 μM
In short: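 Compound is added to cells at final concentrations of 0.1, 1 and 10 μM and left 30 minutes at room temperature. Necroptosis is induced with 15 ng/mL TNF-α, culture continues 20 to 24 hours at 37° C, and ATP-based luminescence reports viability.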

SMILES | Degradation assay (Degradation %) 1 μM (MLKL [1]) | Degradation assay (Degradation %) 10 μM (MLKL [1]) | Kd (MLKL [2]) | Necroptosis inhibition assay (Rescue %) 1 μM (FADD−/− Jurkat cells) | Necroptosis inhibition assay (Rescue %) 10 μM (FADD−/− Jurkat cells) | Necroptosis inhibition assay (Rescue %) 1 μM (FADD−/− Jurkat cells; FADD−/− Jurkat cells) | Necroptosis inhibition assay (Rescue %) 10 μM (FADD−/− Jurkat cells; FADD−/− Jurkat cells)
Nc1ncc(-c2cnn(C3CCN(CCCCCCCCCCNC(=O)C4CN(c5cccc6c5C(=O)N(C5CCC(=O)NC5=O)C6=O)C4)CC3)c2)nc1C(=O)O[C@@H](C(=O)Nc1ccc(F)cc1)c1ccccc1 (stereo partly drawn) [TDH-158, (R)-2-((4-fluorophenyl)amino)-2-oxo-1-phenylethyl 3-amino-6-(1-(1-(10-(1-(2-(2,6-dioxopiperidin-3-yl)-1,3-dioxoisoindolin-4-yl)azetidine-3-carboxamido)decyl)piperidin-4-yl)-1H-pyrazol-4-yl)pyrazine-2-carboxylate] | 49.22% | 39.81% | 35 nM | – | – | – | –
Nc1ncc(-c2cnn(C3CCN(CC4CCN(C(=O)CNc5cccc6c5C(=O)N(C5CCC(=O)NC5=O)C6=O)CC4)CC3)c2)nc1C(=O)N[C@@H](C(=O)Nc1ccc(F)cc1)c1ccccc1 (stereo partly drawn) [TDH-206, 3-amino-6-(1-(1-((1-((2-(2,6-dioxopiperidin-3-yl)-1,3-dioxoisoindolin-4-yl)glycyl)piperidin-4-yl)methyl)piperidin-4-yl)-1H-pyrazol-4-yl)-N-((R)-2-((4-fluorophenyl)amino)-2-oxo-1-phenylethyl)pyrazine-2-carboxamide] | 21.78% | 14.94% | 240 nM | – | – | – | –
Nc1ncc(-c2cn(C3CCN(CC4CCN(C(=O)C5CCN(c6ccc7c(c6)C(=O)N(C6CCC(=O)NC6=O)C7=O)CC5)CC4)CC3)nn2)nc1C(=O)OC(C(=O)Nc1ccc(F)cc1)c1ccccc1 (centres unmarked) [TDH-221, 2-((4-fluorophenyl)amino)-2-oxo-1-phenylethyl 3-amino-6-(1-(1-((1-(1-(2-(2,6-dioxopiperidin-3-yl)-1,3-dioxoisoindolin-5-yl)piperidine-4-carbonyl)piperidin-4-yl)methyl)piperidin-4-yl)-1H-1,2,3-triazol-4-yl)pyrazine-2-carboxylate] | – | – | 27 nM | 53.65% | 54.23% | – | –
Nc1ncc(-c2ccc(N3CCN(CC4CCN(C(=O)C5CCN(c6cccc7c6C(=O)N(C6CCC(=O)NC6=O)C7=O)CC5)CC4)CC3)nc2)nc1C(=O)OC(C(=O)Nc1ccc(F)cc1)c1ccccc1 (centres unmarked) [TDH-230, 2-((4-fluorophenyl)amino)-2-oxo-1-phenylethyl 3-amino-6-(6-(4-((1-(1-(2-(2,6-dioxopiperidin-3-yl)-1,3-dioxoisoindolin-4-yl)piperidine-4-carbonyl)piperidin-4-yl)methyl)piperazin-1-yl)pyridin-3-yl)pyrazine-2-carboxylate] | – | – | 140 nM | 7.4% | 10.64% | – | –
Nc1ncc(-c2ccc(N3CCN(CC4CCN(C(=O)C5CCN(c6ccc7c(c6)C(=O)N(C6CCC(=O)NC6=O)C7=O)CC5)CC4)CC3)nc2)nc1C(=O)OC(C(=O)Nc1ccc(F)cc1)c1ccccc1 (centres unmarked) [TDH-231, 2-((4-fluorophenyl)amino)-2-oxo-1-phenylethyl 3-amino-6-(6-(4-((1-(1-(2-(2,6-dioxopiperidin-3-yl)-1,3-dioxoisoindolin-5-yl)piperidine-4-carbonyl)piperidin-4-yl)methyl)piperazin-1-yl)pyridin-3-yl)pyrazine-2-carboxylate] | – | – | 140 nM | 15.47% | 11.4% | – | –
Nc1ncc(-c2ccc(N3CCN(CC4CCN(C(=O)CNc5cccc6c5C(=O)N(C5CCC(=O)NC5=O)C6=O)CC4)CC3)nc2)nc1C(=O)OC(C(=O)Nc1ccc(F)cc1)c1ccccc1 (centres unmarked) [TDH-232, 2-((4-fluorophenyl)amino)-2-oxo-1-phenylethyl 3-amino-6-(6-(4-((1-((2-(2,6-dioxopiperidin-3-yl)-1,3-dioxoisoindolin-4-yl)glycyl)piperidin-4-yl)methyl)piperazin-1-yl)pyridin-3-yl)pyrazine-2-carboxylate] | – | – | 260 nM | 3.46% | – | – | –

Now from value to molecule, other results behind:

Degradation assay (Degradation %) 1 μM (MLKL [1]) | Degradation assay (Degradation %) 10 μM (MLKL [1]) | Kd (MLKL [2]) | SMILES | Necroptosis inhibition assay (Rescue %) 1 μM (FADD−/− Jurkat cells) | Necroptosis inhibition assay (Rescue %) 10 μM (FADD−/− Jurkat cells) | Necroptosis inhibition assay (Rescue %) 1 μM (FADD−/− Jurkat cells; FADD−/− Jurkat cells) | Necroptosis inhibition assay (Rescue %) 10 μM (FADD−/− Jurkat cells; FADD−/− Jurkat cells)
– | – | 91 nM | Nc1ncc(-c2cnn(C3CCN(CCOCCOCCNc4cccc5c4C(=O)N(C4CCC(=O)NC4=O)C5=O)CC3)c2)nc1C(=O)N[C@@H](C(=O)Nc1ccc(F)cc1)c1ccccc1 (stereo partly drawn) [TDH-215, 3-amino-6-(1-(1-(2-(2-(2-((2-(2,6-dioxopiperidin-3-yl)-1,3-dioxoisoindolin-4-yl)amino)ethoxy)ethoxy)ethyl)piperidin-4-yl)-1H-pyrazol-4-yl)-N-((R)-2-((4-fluorophenyl)amino)-2-oxo-1-phenylethyl)pyrazine-2-carboxamide] | 15.33% | 21.83% | – | –
– | – | 43 nM | Nc1ncc(-c2cnn(C3CCN(CCOCCOCCNc4ccc5c(c4)C(=O)N(C4CCC(=O)NC4=O)C5=O)CC3)c2)nc1C(=O)N[C@@H](C(=O)Nc1ccc(F)cc1)c1ccccc1 (stereo partly drawn) [TDH-216, 3-amino-6-(1-(1-(2-(2-(2-((2-(2,6-dioxopiperidin-3-yl)-1,3-dioxoisoindolin-5-yl)amino)ethoxy)ethoxy)ethyl)piperidin-4-yl)-1H-pyrazol-4-yl)-N-((R)-2-((4-fluorophenyl)amino)-2-oxo-1-phenylethyl)pyrazine-2-carboxamide] | 21.7% | 38.63% | – | –
– | – | 46 nM | Nc1ncc(-c2cnn(C3CCN(CCOCCOCCNC(=O)CNc4ccc5c(c4)C(=O)N(C4CCC(=O)NC4=O)C5=O)CC3)c2)nc1C(=O)N[C@@H](C(=O)Nc1ccc(F)cc1)c1ccccc1 (stereo partly drawn) [TDH-218, 3-amino-6-(1-(1-(2-(2-(2-(2-((2-(2,6-dioxopiperidin-3-yl)-1,3-dioxoisoindolin-5-yl)amino)acetamido)ethoxy)ethoxy)ethyl)piperidin-4-yl)-1H-pyrazol-4-yl)-N-((R)-2-((4-fluorophenyl)amino)-2-oxo-1-phenylethyl)pyrazine-2-carboxamide] | 27.92% | 40.68% | – | –
18.61% | 30.36% | 50 nM | Nc1ncc(-c2ccc(N3CCN(CCOCCOCCNC(=O)CNc4cccc5c4C(=O)N(C4CCC(=O)NC4=O)C5=O)CC3)nc2)nc1C(=O)OC(C(=O)Nc1ccc(F)cc1)c1ccccc1 (centres unmarked) [TDH-259, 2-((4-fluorophenyl)amino)-2-oxo-1-phenylethyl 3-amino-6-(6-(4-(2-(2-(2-(2-((2-(2,6-dioxopiperidin-3-yl)-1,3-dioxoisoindolin-4-yl)amino)acetamido)ethoxy)ethoxy)ethyl)piperazin-1-yl)pyridin-3-yl)pyrazine-2-carboxylate] | – | – | – | –
– | – | 91 nM | Nc1ncc(-c2cnn(C3CCN(CCCN4CCN(C(=O)CNc5ccc6c(c5)C(=O)N(C5CCC(=O)NC5=O)C6=O)CC4)CC3)c2)nc1C(=O)N[C@@H](C(=O)Nc1ccc(F)cc1)c1ccccc1 (stereo partly drawn) [TDH-493, 3-amino-6-(1-(1-(3-(4-((2-(2,6-dioxopiperidin-3-yl)-1,3-dioxoisoindolin-5-yl)glycyl)piperazin-1-yl)propyl)piperidin-4-yl)-1H-pyrazol-4-yl)-N-((R)-2-((4-fluorophenyl)amino)-2-oxo-1-phenylethyl)pyrazine-2-carboxamide] | – | – | 1.49% | −3.98%
